Measured values: ChEMBL document CHEMBL5543096 (J Med Chem, 2024)
Activity calls are given as the source filed them. No cut-off for these calls is given here.

Experiments:
[1] = Cmax in Sprague-Dawley rat at 0.3 mg/kg,iv measured at 0.05 to 24 hrs of post administration by LC-MS/MS analysis; assay type: ADME, organism-based; conditions: in vivo, time 0.05-24 hrs
Mus musculus [2] = experiment: Antidepressant activity in Reserpine-induced depressive ICR mouse model assessed as change in total distance traveled at 25 to 300 microg/kg,ip administrated on day 4 to 8 measured on day 9 by open field test; assay type: functional, organism-based; conditions: dose 25-300 µg/kg, time 6.0 day
Mus musculus [3] = experiment: Antidepressant activity in Reserpine-induced depressive ICR mouse model assessed as reduction in weight loss at 25 to 300 microg/kg,ip administrated on day 4 to 8 for 5 days; assay type: functional, organism-based; conditions: dose 25-300 µg/kg, time 5.0 day
HT-22 = experiment: Neuroprotective activity against CORT-induced cytotoxicity in mouse HT-22 cells assessed as increase in cell viability at 12.5 to 100 uM incubated for 24 hrs by CCK-8 assay; assay type: functional, cell-based; conditions: dose 12.5-100 µM
Mus musculus [4] = experiment: Antidepressant activity in Reserpine-induced depressive C57BL/6J mouse model assessed as decrease in immobility time at 0.1 to 1 mg/kg,ip administration measured after 30 mins by tail suspension test; assay type: functional, organism-based; conditions: dose 0.1-1 mg/kg
[5] = Cmax in Sprague-Dawley rat at 0.3 mg/kg,ip measured at 0.05 to 24 hrs of post administration by LC-MS/MS analysis; assay type: ADME, organism-based; conditions: in vivo, time 0.05-24 hrs
[6] = Tmax in Sprague-Dawley rat at 0.3 mg/kg,iv measured at 0.05 to 24 hrs of post administration by LC-MS/MS analysis; assay type: ADME, organism-based; conditions: in vivo, time 0.05-24 hrs
[7] = Tmax in Sprague-Dawley rat at 0.3 mg/kg,ip measured at 0.05 to 24 hrs of post administration by LC-MS/MS analysis; assay type: ADME, organism-based; conditions: in vivo, time 0.05-24 hrs
[8] = AUC (0 to last) in Sprague-Dawley rat at 0.3 mg/kg,ip measured at 0.05 to 24 hrs of post administration by LC-MS/MS analysis; assay type: ADME, organism-based; conditions: in vivo, time 0.05-24 hrs
[9] = AUC (0 to infinity) in Sprague-Dawley rat at 0.3 mg/kg,iv measured at 0.05 to 24 hrs of post administration by LC-MS/MS analysis; assay type: ADME, organism-based; conditions: in vivo, time 0.05-24 hrs
[10] = MRT (0 to last) in Sprague-Dawley rat at 0.3 mg/kg,iv measured at 0.05 to 24 hrs of post administration by LC-MS/MS analysis; assay type: ADME, organism-based; conditions: in vivo, time 0.05-24 hrs
[11] = MRT (0 to last) in Sprague-Dawley rat at 0.3 mg/kg,ip measured at 0.05 to 24 hrs of post administration by LC-MS/MS analysis; assay type: ADME, organism-based; conditions: in vivo, time 0.05-24 hrs
[12] = MRT (0 to infinity) in Sprague-Dawley rat at 0.3 mg/kg,iv measured at 0.05 to 24 hrs of post administration by LC-MS/MS analysis; assay type: ADME, organism-based; conditions: in vivo, time 0.05-24 hrs
[13] = MRT (0 to infinity) in Sprague-Dawley rat at 0.3 mg/kg,ip measured at 0.05 to 24 hrs of post administration by LC-MS/MS analysis; assay type: ADME, organism-based; conditions: in vivo, time 0.05-24 hrs
[14] = Half life in Sprague-Dawley rat at 0.3 mg/kg,iv measured at 0.05 to 24 hrs of post administration by LC-MS/MS analysis; assay type: ADME, organism-based; conditions: in vivo, time 0.05-24 hrs
[15] = Bioavailability in Sprague-Dawley rat at 0.3 mg/kg,ip measured at 0.05 to 24 hrs of post administration by LC-MS/MS analysis; assay type: ADME, organism-based; conditions: in vivo, time 0.05-24 hrs
Mus musculus [16] = experiment: Antidepressant activity in Reserpine-induced depressive C57BL/6J mouse model assessed as decrease in immobility time at 0.1 to 0.3 mg/kg,ip administration measured after 7 days by tail suspension test; assay type: functional, organism-based; conditions: dose 0.1-0.3 mg/kg, time 7.0 day
Mus musculus [17] = experiment: Antidepressant activity in chronic restraint stress-induced depressive C57BL/6J mouse model assessed as change in total distance traveled at 25 to 300 microg/kg,ip administrated on day 29 to 33 measured on day 34 by open field test; assay type: functional, organism-based; conditions: dose 25-300 µg/kg, time 6.0 day
[18] = Toxicity in chronic restraint stress-induced depressive C57BL/6J mouse model assessed as heart pathological change at 25 to 300 microg/kg,ip administrated on day 29 to 33 measured on day 36 by hematoxylin and eosin staining based microscopic analysis; assay type: tissue-based; conditions: in vivo, 192 h, dose 25-300 µg/kg, time 8 day
[19] = Toxicity in chronic restraint stress-induced depressive C57BL/6J mouse model assessed as spleen pathological change at 25 to 300 microg/kg,ip administrated on day 29 to 33 measured on day 36 by hematoxylin and eosin staining based microscopic analysis; assay type: tissue-based; conditions: in vivo, 192 h, dose 25-300 µg/kg, time 8 day
[20] = Toxicity in chronic restraint stress-induced depressive C57BL/6J mouse model assessed as lung pathological change at 25 to 300 microg/kg,ip administrated on day 29 to 33 measured on day 36 by hematoxylin and eosin staining based microscopic analysis; assay type: tissue-based; conditions: in vivo, 192 h, dose 25-300 µg/kg, time 8 day
[21] = Toxicity in chronic restraint stress-induced depressive C57BL/6J mouse model assessed as kidney pathological change at 25 to 300 microg/kg,ip administrated on day 29 to 33 measured on day 36 by hematoxylin and eosin staining based microscopic analysis; assay type: tissue-based; conditions: in vivo, 192 h, dose 25-300 µg/kg, time 8 day
[22] = Toxicity in chronic restraint stress-induced depressive C57BL/6J mouse model assessed as decrease in percentage of spontaneous alternation at 1 mg/kg,ip administration by Y-maze test; assay type: organism-based; conditions: in vivo
Mus musculus [23] = experiment: Antidepressant activity in chronic restraint stress-induced depressive C57BL/6J mouse model assessed as increase in hippocampal BDNF mRNA expression at 0.3 mg/kg,ip administration measured after 8 hrs by qRT-PCR analysis; assay type: functional, organism-based
Mus musculus [24] = experiment: Antidepressant activity in chronic restraint stress-induced depressive C57BL/6J mouse model assessed as increase in hippocampal BDNF protein expression at 0.3 mg/kg,ip administration measured after 8 hrs by Western blotting analysis; assay type: functional, organism-based
Mus musculus [25] = experiment: Antidepressant activity in chronic restraint stress-induced depressive C57BL/6J mouse model assessed as increase in hippocampal BDNF protein expression at 0.3 mg/kg,ip administration measured after 24 hrs by Western blotting analysis; assay type: functional, organism-based
[26] = target: T1, Muscarinic acetylcholine receptor M1 (Homo sapiens, UniProt P11229); experiment: Binding affinity to human N-terminal eGFP-tagged CHRM1 expressed in HEK293T cells assessed as dissociation constant incubated for 10 mins by microscale thermophoresis assay; assay type: cell-based
T1 sequence (P11229 whole entry): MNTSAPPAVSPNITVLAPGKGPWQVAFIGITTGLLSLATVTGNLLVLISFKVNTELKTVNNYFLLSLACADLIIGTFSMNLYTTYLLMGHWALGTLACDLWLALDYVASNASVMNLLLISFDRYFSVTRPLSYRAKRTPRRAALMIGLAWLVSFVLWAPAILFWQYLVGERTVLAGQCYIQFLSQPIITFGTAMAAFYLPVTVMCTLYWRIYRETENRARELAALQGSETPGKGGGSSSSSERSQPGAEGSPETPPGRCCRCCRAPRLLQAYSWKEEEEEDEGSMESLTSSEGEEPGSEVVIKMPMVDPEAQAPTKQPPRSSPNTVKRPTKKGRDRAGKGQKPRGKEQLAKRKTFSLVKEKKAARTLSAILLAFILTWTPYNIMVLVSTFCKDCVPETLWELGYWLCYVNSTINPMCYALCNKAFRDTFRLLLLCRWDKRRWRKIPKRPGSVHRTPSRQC

Q: Which Cmax [1] does the source give for CN1[C@@H]2C[C@@H](OC(=O)[C@@](F)(CO)c3ccccc3)C[C@H]1[C@@H]1O[C@@H]12 here?
A: 230 ng/mL

Q: And the Activity (Mus musculus [2])?
A: inactive

Q: And the Activity (Mus musculus [3])?
A: Active

Q: What about the Activity (HT-22) of the same compound?
A: Active

Q: And the Activity (Mus musculus [4])?
A: Active

Q: And the Cmax [5]?
A: 41.9 ng/mL

Q: What about the Tmax [6] of the same compound?
A: 3 min

Q: And the Tmax [7]?
A: 12.5 min

Q: What about the AUC(0-t) [8] of the same compound?
A: 24.2 ng·h/mL

Q: And the AUC(0-inf) [9]?
A: 71.4 ng·h/mL

Q: What about the MRT last [10] of the same compound?
A: 13.8 min

Q: And the MRT last [11]?
A: 23 min

Q: What about the MRT inf [12] of the same compound?
A: 16.6 min

Q: And the MRT inf [13]?
A: 27.3 min

Q: And the half-life [14]?
A: 13.9 min

Q: And the bioavailability [15]?
A: 35.5%

Q: And the Activity (Mus musculus [16])?
A: Active

Q: And the Activity (Mus musculus [17])?
A: inactive

Q: What about the Activity [18] of the same compound?
A: Non-Toxic

Q: And the Activity [19]?
A: Non-Toxic

Q: And the Activity [20]?
A: Non-Toxic

Q: What about the Activity [21] of the same compound?
A: Non-Toxic

Q: What about the Activity [22] of the same compound?
A: Non-Toxic

Q: And the Activity (Mus musculus [23])?
A: Active

Q: What about the Activity (Mus musculus [24]) of the same compound?
A: Active

Q: What about the Activity (Mus musculus [25]) of the same compound?
A: inactive

Q: And the Kd [26]?
A: 336 µM
